Like-named read-outs stand apart in the source and are kept apart here. *1 amine or outer side, *2 acyl side, *3 side chain or, on linkers, in order; H or OH if unused. Where a SMILES comes first, the peptide text is derived from it. Bridges are numbered along the chain shown (N, C = ends). [ ]: non-standard residue; d: D form. Biphenyl(4,4'-CH2)2 = c1cc(-c2ccc(C[*:2])cc2)ccc1C[*:1]; Maleimide(3,4-diyl) = O=C1NC(=O)C([*:2])=C1[*:1]; Pro(trans-4-F) = O=C(O)[C@@H]1C[C@@H](F)CN1; Phe(4-Br) = N[C@@H](Cc1ccc(Br)cc1)C(=O)O; Nle = CCCC[C@H](N)C(=O)O
Target: T1, Aurora-A122-403-C290A/C393A (Homo sapiens, UniProt O14965, C290A/C393A)
T1 construct: Human Aurora-A kinase domain 122-403 wild-type or C290A/ C393A mutant; His tag (pET30TEV vector) (N, cleaved yes); made in house; host or cells: E. coli RIL, co-expressed with lambda phosphatase (Aurora-A); tracer by solid phase synthesis
T1 sequence (O14965 122-403 C290A/C393A): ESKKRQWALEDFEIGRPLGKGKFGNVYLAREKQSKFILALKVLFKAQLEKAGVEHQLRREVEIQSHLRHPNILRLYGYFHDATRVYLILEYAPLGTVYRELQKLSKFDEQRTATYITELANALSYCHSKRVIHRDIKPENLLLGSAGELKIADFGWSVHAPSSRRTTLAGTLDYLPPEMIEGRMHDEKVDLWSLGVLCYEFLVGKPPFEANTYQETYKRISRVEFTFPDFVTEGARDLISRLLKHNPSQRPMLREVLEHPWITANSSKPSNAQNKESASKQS
Experiment: Competition FA assay against FAM-Ahx-TACC3 522-536 tracer
Format: binding
Experimental: Once completed, the mixtures were transferred into SPPS fritted reaction vessels and washed with H2O (5X, 10 mL, 2 min), DMF (5X, 5mL, 2 min) and DCM (5X, 5 mL, 2 min). The clean resins were dried under vacuum and the cyclic peptides cleaved from the resin following the general procedures described in previous sections. After Et2O precipitation, the crude materials were freeze-dried and redissolved in H2O/MeCN/TFA 90/10/0.1% v/v for preparative HPLC purification.
All disulfide peptide variants (ox) were produced in situ from their free-thiol solid precursors. For this, 2 mg of the pure peptide materials were dissolved in aqueous DMSO 33% v/v to a 10 mM concentration and were left open to air oxidation at room temperature overnight. […]
the peptides were employed for FA competition assays and IC50 evaluation without further additional […]
Fluorescence anisotropy (FA) assays – General information.
All assays were performed using 384-well plates(Greiner Bio-one, UK). […]
produced as described previously.11 All samples were prepared in 25 mM Tris,150 mM NaCl, 5 mM MgCl2, pH= 7.5, unless otherwise stated, and tested in triplicate using an EnVisionTM 2103 MultiLabel plate reader (PerkinElmer; Waltham, MA, USA).The parameters were set as follows: Excitation wavelength = 480 nm (30 nm bandwidth) and emission wavelength = 535 nm (30 nm bandwidth). Measured data were processed and analysed as previously described.12 Specifically, the perpendicular intensity (P) and parallel intensity (S) were subtracted by the control values and used for calculations of intensity and anisotropy using the following Equations 1, 2, 3, 4, and 5:
I= (2PG) + S Eq. (SI − 5)
r = (S − PG) Eq. (SI − 6)
L = r − r௠௜௡ Eq. (SI − 7)
y = (k + x + [FL]) − ඥ(k + x + [FL]2 − 4 ∗ x ∗ [FL]) Eq. (SI − 8)
y = r + r௠௜௡ − r௠௔௫ Eq. (SI − 9)
Where I = total intensity; P = perpendicular intensity; S = parallel intensity; G = instrument factor; r = anisotropy; Lb = ligand bound fraction; λ = change in intensity between bound and unbound states which […]
FA direct binding assays. […]
starting from 700 μM, diluted over 24 points in a 1/2 regime using the FAM-Ahx-labeled peptides at a final fixed concentration of 50 nM per well.
FA competition assays were performed using the same plates and buffer as described above, with the initial […]
14 points in a 1/2 regime. […]
after 4 h of incubation to enable appropriate sample equilibration. To prevent sample oxidation, when sulfhydryl peptides were analyzed DTT was added to the buffer (5 mM). In competition mode, the average anisotropy and the average standard deviation of the values derived from equation SI-6 were calculated and fit to a sigmoidal logistic model (equation SI-9) using Origin 2021. When using peptides for which full […]
For consistency, all the data […]
indicating the corresponding SD. […]

[1] = as E1, Table S3 (mal): maleimide-constrained species, WT value is an individual replica control assay, mean ± SD, n = 3, SD, read-out: IC50 (mal)
[2] = as E1, oxidised (disulfide) species made in situ from 10 mM stock in aqueous DMSO 33% v/v, air, overnight, WT control (+DMSO) given the same DMSO incubation, mean ± SD, n = 3, read-out: IC50 (ox)

Ac-EESYRDPAEVLGTGA-NH2 [TACC3 522-536_F525Y]
IC50 (read-out: IC50): ≥ 500 µM

CC(=O)N[C@@H](CCC(=O)O)C(=O)N[C@@H](CCC(=O)O)C(=O)N[C@@H](CO)C(=O)N[C@@H](Cc1c(F)c(F)c(F)c(F)c1F)C(=O)N[C@@H](CCCNC(=N)N)C(=O)N[C@@H](CC(=O)O)C(=O)N1CCC[C@H]1C(=O)N[C@@H](C)C(=O)N[C@@H](CCC(=O)O)C(=O)N[C@H](C(=O)N[C@@H](CC(C)C)C(=O)NCC(=O)N[C@H](C(=O)NCC(=O)N[C@@H](C)C(N)=O)[C@@H](C)O)C(C)C [TACC3 522-536_5f-525F]
IC50 (SD, read-out: IC50): 97 ± 10 µM

CC(=O)N[C@@H](CCC(=O)O)C(=O)N[C@@H](CCC(=O)O)C(=O)N[C@@H](CO)C(=O)N[C@@H](Cc1ccc(F)cc1)C(=O)N[C@@H](CCCNC(=N)N)C(=O)N[C@@H](CC(=O)O)C(=O)N1CCC[C@H]1C(=O)N[C@@H](C)C(=O)N[C@@H](CCC(=O)O)C(=O)N[C@H](C(=O)N[C@@H](CC(C)C)C(=O)NCC(=O)N[C@H](C(=O)NCC(=O)N[C@@H](C)C(N)=O)[C@@H](C)O)C(C)C [TACC3 522-536_(4-F)525F]
IC50 (SD, read-out: IC50): 184 ± 22 µM

CC(=O)N[C@@H](CCC(=O)O)C(=O)N[C@H]1CSC2=C(SC[C@@H](C(=O)N[C@@H](CC(=O)O)C(=O)N3CCC[C@H]3C(=O)N[C@@H](C)C(=O)N[C@@H](CCC(=O)O)C(=O)N[C@H](C(=O)N[C@@H](CC(C)C)C(=O)NCC(=O)N[C@H](C(=O)NCC(=O)N[C@@H](C)C(N)=O)[C@@H](C)O)C(C)C)NC(=O)[C@H](Cc3ccccc3)NC(=O)[C@H](CO)NC1=O)C(=O)NC2=O [TACC3 522-536 E523C/R526C (mal)] (Ac-ECSFCDPAEVLGTGA-NH2; linker 2-5 via Maleimide(3,4-diyl))
IC50 [1]: 376 ± 28 µM

CC(=O)N[C@@H](CC(C)C)C(=O)N[C@@H](CCC(=O)O)C(=O)N[C@H]1CSCc2ccc(cc2)-c2ccc(cc2)CSC[C@@H](C(=O)N[C@@H](CC(=O)O)C(=O)N2C[C@H](F)C[C@H]2C(=O)N[C@@H](C)C(=O)N[C@@H](CCC(=O)O)C(=O)N[C@H](C(=O)N[C@@H](CC(C)C)C(N)=O)C(C)C)NC(=O)[C@H](Cc2ccc(Br)cc2)NC(=O)[C@H](CO)NC(=O)[C@H](CCC(=O)O)NC(=O)[C@H](CCC(=O)O)NC(=O)[C@H](CCCCN)NC1=O [TACC3 518-532-L/R-Bph-BrF/fP] (Ac-LECKEES[Phe(4-Br)]CD[Pro(trans-4-F)]AEVL-NH2; linker 3-9 via Biphenyl(4,4'-CH2)2)
IC50 (SD, read-out: IC50): 22 ± 1 µM

CC(=O)N[C@H]1CSSC[C@@H](C(=O)N[C@@H](C)C(=O)N[C@@H](CCC(=O)O)C(=O)N[C@H](C(=O)N[C@@H](CC(C)C)C(=O)NCC(=O)N[C@H](C(=O)NCC(=O)N[C@@H](C)C(N)=O)[C@@H](C)O)C(C)C)NC(=O)[C@H](CC(=O)O)NC(=O)[C@H](CCCNC(=N)N)NC(=O)[C@H](Cc2ccccc2)NC(=O)[C@H](CO)NC(=O)[C@H](CCC(=O)O)NC1=O [TACC3 522-536 E522C/P528C (ox)] (Ac-CESFRDCAEVLGTGA-NH2; disulfide 1-7)
IC50 [2]: ≥ 500 µM

CC(=O)N[C@@H](CCC(=O)O)C(=O)N[C@@H](CCC(=O)O)C(=O)N[C@@H](CO)C(=O)N[C@@H](Cc1ccccc1)C(=O)N[C@@H](CCCNC(=N)N)C(=O)N[C@@H](CC(=O)O)C(=O)N1CCC[C@H]1C(=O)N[C@@H](C)C(=O)N[C@H]1CSC2=C(SC[C@@H](C(=O)N[C@H](C(=O)NCC(=O)N[C@@H](C)C(N)=O)[C@@H](C)O)NC(=O)[C@H](CC(C)C)NC(=O)[C@H](C(C)C)NC1=O)C(=O)NC2=O [TACC3 522-536 E530C/G533C (mal)] (Ac-EESFRDPACVLCTGA-NH2; linker 9-12 via Maleimide(3,4-diyl))
IC50 [1]: 223 ± 17 µM

CC(=O)N[C@@H](CCC(=O)O)C(=O)N[C@@H](CCC(=O)O)C(=O)N[C@@H](CO)C(=O)N[C@@H](Cc1ccccc1)C(=O)N[C@@H](CCCNC(=N)N)C(=O)N[C@@H](CC(=O)O)C(=O)N1CCC[C@H]1C(=O)N[C@@H](C)C(=O)N[C@@H](CCC(=O)O)C(=O)N[C@H]1CSSC[C@@H](C(=O)NCC(=O)N[C@@H](C)C(N)=O)NC(=O)CNC(=O)[C@H](CC(C)C)NC1=O [TACC3 522-536 V531C/T534C (ox)] (Ac-EESFRDPAECLGCGA-NH2; disulfide 10-13)
IC50 [2]: ≥ 500 µM

CC(=O)N[C@@H](CCC(=O)O)C(=O)N[C@@H](CCC(=O)O)C(=O)N[C@@H](CO)C(=O)NC(C)(Cc1ccccc1)C(=O)N[C@@H](CCCNC(=N)N)C(=O)N[C@@H](CC(=O)O)C(=O)N1CCC[C@H]1C(=O)N[C@@H](C)C(=O)N[C@@H](CCC(=O)O)C(=O)N[C@H](C(=O)N[C@@H](CC(C)C)C(=O)NCC(=O)N[C@H](C(=O)NCC(=O)N[C@@H](C)C(N)=O)[C@@H](C)O)C(C)C (stereo partly drawn) [TACC3 522-536_(α-Me) -525F]
IC50 (read-out: IC50): ≥ 500 µM

CC(=O)N[C@@H](CCC(=O)O)C(=O)N[C@@H](CCC(=O)O)C(=O)N[C@@H](CO)C(=O)N[C@@H](Cc1ccccc1)C(=O)N[C@@H](CCCNC(=N)N)C(=O)N[C@@H](CC(=O)O)C(=O)N1CCC[C@H]1C(=O)N[C@H]1CSSC[C@@H](C(=O)NCC(=O)N[C@H](C(=O)NCC(=O)N[C@@H](C)C(N)=O)[C@@H](C)O)NC(=O)[C@H](C(C)C)NC(=O)[C@H](CCC(=O)O)NC1=O [TACC3 522-536 A529C/L532C (ox)] (Ac-EESFRDPCEVCGTGA-NH2; disulfide 8-11)
IC50 [2]: ≥ 500 µM

CC(=O)N[C@@H](CCC(=O)O)C(=O)N[C@@H](CCC(=O)O)C(=O)N[C@@H](CO)C(=O)N[C@@H](Cc1ccccc1)C(=O)N[C@@H](CCCNC(=N)N)C(=O)N[C@H]1CSSC[C@@H](C(=O)N[C@H](C(=O)N[C@@H](CC(C)C)C(=O)NCC(=O)N[C@H](C(=O)NCC(=O)N[C@@H](C)C(N)=O)[C@@H](C)O)C(C)C)NC(=O)[C@H](C)NC(=O)[C@@H]2CCCN2C1=O [TACC3 522-536 D527C/E530C (ox)] (Ac-EESFRCPACVLGTGA-NH2; disulfide 6-9)
IC50 [2]: ≥ 500 µM

CC(=O)N[C@@H](CCC(=O)O)C(=O)N[C@@H](CCC(=O)O)C(=O)N[C@@H](CO)C(=O)N[C@@H](Cc1ccccc1)C(=O)N[C@@H](CCCNC(=N)N)C(=O)N[C@@H](CS)C(=O)N1CCC[C@H]1C(=O)N[C@@H](C)C(=O)N[C@@H](CS)C(=O)N[C@H](C(=O)N[C@@H](CC(C)C)C(=O)NCC(=O)N[C@H](C(=O)NCC(=O)N[C@@H](C)C(N)=O)[C@@H](C)O)C(C)C [TACC3 522-536 D527C/E530C (red)] (Ac-EESFRCPACVLGTGA-NH2)
IC50 (as E1, free-sulfhydryl (reduced) species, DTT 5 mM in buffer, WT control (+DTT), mean ± SD, n = 3, read-out: IC50 (red)): ≥ 500 µM

CC(=O)N[C@@H](CC(C)C)C(=O)N[C@@H](CCC(=O)O)C(=O)N[C@@H](CC(C)C)C(=O)N[C@@H](CCCCN)C(=O)N[C@@H](CCC(=O)O)C(=O)N[C@@H](CCC(=O)O)C(=O)N[C@H]1CSCc2ccc(cc2)-c2ccc(cc2)CSC[C@@H](C(=O)N[C@H](C(=O)N[C@@H](CC(C)C)C(N)=O)C(C)C)NC(=O)[C@H](C)NC(=O)[C@@H]2CCCN2C(=O)[C@H](CC(=O)O)NC(=O)[C@H](CCCNC(=N)N)NC(=O)[C@H](Cc2ccccc2)NC1=O [TACC3 518-532 S524C/E530C (Bph)] (Ac-LELKEECFRDPACVL-NH2; linker 7-13 via Biphenyl(4,4'-CH2)2)
fold enhanced inhibitory potency (IC50) compared to the WT peptide (competition FA IC50 ratio vs WT): up to 4 fold

CCCC[C@H](NC(=O)[C@H](CCC(=O)O)NC(=O)[C@H](C)NC(=O)[C@@H]1CCCN1C(=O)[C@H](CC(=O)O)NC(=O)[C@H](CCCNC(=N)N)NC(=O)[C@H](Cc1ccccc1)NC(=O)[C@H](CO)NC(=O)[C@H](CCC(=O)O)NC(=O)[C@H](CCC(=O)O)NC(C)=O)C(=O)N[C@@H](CC(C)C)C(=O)NCC(=O)N[C@H](C(=O)NCC(=O)N[C@@H](C)C(N)=O)[C@@H](C)O [TACC3 522-536_V531nL] (Ac-EESFRDPAE[Nle]LGTGA-NH2)
IC50 (read-out: IC50): ≥ 300 µM
